Test results published in ChEMBL document CHEMBL2203062 (Bioorg Med Chem Lett, 2012).

What was measured:
Histone deacetylase 1 = Histone deacetylase 1 (Homo sapiens, UniProt Q13547); experiment: Inhibition of HDAC1 using Fluor-de-Lys as substrate compound pretreated for 30 mins before substrate addition by fluorescence assay
Histone deacetylase 3 = Histone deacetylase 3 (Homo sapiens, UniProt O15379); experiment: Inhibition of HDAC3 using Fluor-de-Lys as substrate compound pretreated for 30 mins before substrate addition by fluorescence assay
Histone deacetylase 3, sequence (O15379 whole entry): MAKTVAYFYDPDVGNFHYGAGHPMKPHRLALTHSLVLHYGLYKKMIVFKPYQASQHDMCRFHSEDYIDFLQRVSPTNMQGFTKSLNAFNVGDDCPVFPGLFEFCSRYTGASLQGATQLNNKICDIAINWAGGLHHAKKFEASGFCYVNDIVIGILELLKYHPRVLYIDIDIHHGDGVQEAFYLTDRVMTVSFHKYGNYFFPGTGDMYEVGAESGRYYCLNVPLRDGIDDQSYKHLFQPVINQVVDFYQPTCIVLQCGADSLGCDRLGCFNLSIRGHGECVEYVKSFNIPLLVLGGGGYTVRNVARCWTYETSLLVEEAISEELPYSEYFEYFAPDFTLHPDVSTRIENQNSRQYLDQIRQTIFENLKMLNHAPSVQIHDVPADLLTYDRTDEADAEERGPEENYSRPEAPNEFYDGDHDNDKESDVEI

[1] = target: T1, Protein deacetylase HDAC6 (Homo sapiens, UniProt Q9UBN7); experiment: Inhibition of HDAC6 using Fluor-de-Lys as substrate compound pretreated for 30 mins before substrate addition by fluorescence assay
T1 sequence (Q9UBN7 whole entry): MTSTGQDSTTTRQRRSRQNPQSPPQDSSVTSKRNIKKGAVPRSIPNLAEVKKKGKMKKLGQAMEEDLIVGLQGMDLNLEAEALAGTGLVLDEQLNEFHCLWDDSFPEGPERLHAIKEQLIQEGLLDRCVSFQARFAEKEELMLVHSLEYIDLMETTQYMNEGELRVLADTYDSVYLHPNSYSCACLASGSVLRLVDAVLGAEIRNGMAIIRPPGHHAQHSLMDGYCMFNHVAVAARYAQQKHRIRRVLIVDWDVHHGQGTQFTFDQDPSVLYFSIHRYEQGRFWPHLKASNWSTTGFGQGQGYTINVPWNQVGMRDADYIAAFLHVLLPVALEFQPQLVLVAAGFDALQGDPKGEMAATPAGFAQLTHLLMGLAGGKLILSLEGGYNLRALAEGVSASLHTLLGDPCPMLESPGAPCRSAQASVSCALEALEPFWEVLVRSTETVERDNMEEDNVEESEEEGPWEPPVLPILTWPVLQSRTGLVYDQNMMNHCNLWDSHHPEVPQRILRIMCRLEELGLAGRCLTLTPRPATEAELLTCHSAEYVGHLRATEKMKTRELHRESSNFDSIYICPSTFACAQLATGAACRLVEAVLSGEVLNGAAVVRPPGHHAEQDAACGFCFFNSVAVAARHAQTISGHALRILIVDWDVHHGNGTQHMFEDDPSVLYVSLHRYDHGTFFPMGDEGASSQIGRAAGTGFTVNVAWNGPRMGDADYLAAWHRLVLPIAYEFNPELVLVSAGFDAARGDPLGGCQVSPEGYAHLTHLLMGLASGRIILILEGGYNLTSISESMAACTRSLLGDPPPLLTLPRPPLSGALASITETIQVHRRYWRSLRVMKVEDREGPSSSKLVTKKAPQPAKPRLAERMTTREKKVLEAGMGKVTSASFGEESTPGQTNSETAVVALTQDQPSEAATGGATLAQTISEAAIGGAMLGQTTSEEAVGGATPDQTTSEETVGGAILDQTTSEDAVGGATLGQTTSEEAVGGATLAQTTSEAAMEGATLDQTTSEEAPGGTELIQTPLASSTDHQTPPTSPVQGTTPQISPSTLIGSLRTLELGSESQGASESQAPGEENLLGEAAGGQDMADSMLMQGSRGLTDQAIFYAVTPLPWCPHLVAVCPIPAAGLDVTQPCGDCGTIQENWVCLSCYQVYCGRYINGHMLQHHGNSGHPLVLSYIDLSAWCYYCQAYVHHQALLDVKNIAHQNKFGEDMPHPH

Histone deacetylase = experiment: Inhibition of HDAC in human Hela cell lysate using Fluor-de-Lys as substrate compound pretreated for 30 mins before substrate addition by fluorescence assay; assay type: cell-based
[2] = Selectivity ratio of IC50 for HDAC3 to IC50 for IC50 for HDAC6

Histone deacetylase 1, sequence (Q13547 whole entry): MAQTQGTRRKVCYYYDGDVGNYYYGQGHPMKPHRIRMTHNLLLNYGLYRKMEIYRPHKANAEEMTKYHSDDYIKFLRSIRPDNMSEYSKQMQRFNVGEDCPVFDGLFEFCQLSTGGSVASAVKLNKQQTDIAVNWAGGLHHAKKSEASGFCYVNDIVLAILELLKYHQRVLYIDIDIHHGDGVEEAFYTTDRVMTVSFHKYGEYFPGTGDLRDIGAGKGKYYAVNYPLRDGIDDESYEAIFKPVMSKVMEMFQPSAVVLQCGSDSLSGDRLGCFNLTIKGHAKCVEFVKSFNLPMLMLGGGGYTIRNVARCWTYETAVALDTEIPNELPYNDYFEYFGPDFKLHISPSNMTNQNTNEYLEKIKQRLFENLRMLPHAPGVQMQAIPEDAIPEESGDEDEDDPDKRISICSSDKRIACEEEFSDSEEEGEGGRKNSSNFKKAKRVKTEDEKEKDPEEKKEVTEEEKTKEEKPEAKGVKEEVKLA

SMILES	IC50 (Histone deacetylase 1)	IC50 (Histone deacetylase 3)	IC50 [1]	IC50 (Histone deacetylase)	Ratio IC50 [2]
CC(C)(C)C(CCCCC(=O)NO)CC(=O)Nc1ccccc1 (stereo unspecified)	0.99 µM	5.4 µM	2.4 µM	1.94 µM	2
CCC(CCCCC(=O)Nc1ccccc1)CC(=O)NO (stereo unspecified)					12
